Laboratory results reported in patent US4868321A, “Isothiocyanate intermediates” (FMC Corporation, priority 1988, dated 1989).
Where a name gives a salt, the structure may show the parent alone.

How the values were obtained:
Format in all cases: in vivo
[1] = system: Field Corn; assay: Preemergence Herbicidal Activity, Field Corn; conditions: Zea mays, pre-emergence; for plant injury at 2000 g/ha: 2.0 kg/ha
Procedure, shortened: (§1)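 The reported numbers are percent control, obtained after treatment at rates quantified as kilograms per hectare.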

[2] = system: Green Foxtail; assay: Preemergence Herbicidal Activity, Green Foxtail; conditions: Setaria viridis, pre-emergence; for pest or weed control at 2000 g/ha: 2.0 kg/ha
Procedure, shortened: (§2)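 Efficacy is recorded as percent control at each application rate, expressed in kg/ha.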

[3] = system: Johnsongrass; assay: Preemergence Herbicidal Activity, Johnsongrass; conditions: Sorghum halepense, pre-emergence; for pest or weed control at 2000 g/ha: 2.0 kg/ha
Procedure, shortened: as §2

[4] = system: Cotton; assay: Postemergence Herbicidal Activity, Cotton; conditions: Gossypium hirsutum, post-emergence; for plant injury at 2000 g/ha: 2.0 kg/ha
Procedure, shortened: (§3)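 Herbicide dissolved, usually in 50/50 acetone/water, then applied preemergence or postemergence at a set kg/ha rate. Control assessed as % C.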

[5] = system: Green Foxtail; assay: Postemergence Herbicidal Activity, Green Foxtail; conditions: Setaria viridis, post-emergence; for pest or weed control at 2000 g/ha: 2.0 kg/ha
Procedure, shortened: as §2

[6] = system: Barnyardgrass; assay: Preemergence Herbicidal Activity, Barnyardgrass; conditions: Echinochloa crus-galli, pre-emergence; for pest or weed control at 2000 g/ha: 2.0 kg/ha
Procedure, shortened: as §2

[7] = system: Barnyardgrass; assay: Postemergence Herbicidal Activity, Barnyardgrass; conditions: Echinochloa crus-galli, post-emergence; for pest or weed control at 2000 g/ha: 2.0 kg/ha
Procedure, shortened: as §2

[8] = system: Cotton; assay: Preemergence Herbicidal Activity, Cotton; conditions: Gossypium hirsutum, pre-emergence; for plant injury at 2000 g/ha: 2.0 kg/ha
Procedure, shortened: as §3

[9] = system: Velvetleaf; assay: Preemergence Herbicidal Activity, Velvetleaf; conditions: Abutilon theophrasti, pre-emergence; for pest or weed control at 2000 g/ha: 2.0 kg/ha
Procedure, shortened: as §3

[10] = system: Johnsongrass; assay: Postemergence Herbicidal Activity, Johnsongrass; conditions: Sorghum halepense, post-emergence; for pest or weed control at 2000 g/ha: 2.0 kg/ha
Procedure, shortened: as §2

[11] = system: Wheat; assay: Postemergence Herbicidal Activity, Wheat; conditions: Triticum aestivum, post-emergence; for plant injury at 2000 g/ha: 2.0 kg/ha
Procedure, shortened: as §1

[12] = system: Field Bindweed; assay: Preemergence Herbicidal Activity, Field Bindweed; conditions: pre-emergence; for pest or weed control at 2000 g/ha: 2.0 kg/ha
Procedure, shortened: as §3

[13] = system: Rice; assay: Preemergence Herbicidal Activity, Rice; conditions: Oryza sativa, pre-emergence; for plant injury at 2000 g/ha: 2.0 kg/ha
Procedure, shortened: as §1

[14] = system: Wheat; assay: Preemergence Herbicidal Activity, Wheat; conditions: Triticum aestivum, pre-emergence; for plant injury at 2000 g/ha: 2.0 kg/ha
Procedure, shortened: as §1

[15] = system: Field Bindweed; assay: Postemergence Herbicidal Activity, Field Bindweed; conditions: post-emergence; for pest or weed control at 2000 g/ha: 2.0 kg/ha
Procedure, shortened: as §3

[16] = system: Soybean; assay: Postemergence Herbicidal Activity, Soybean; conditions: Glycine max, post-emergence; for plant injury at 2000 g/ha: 2.0 kg/ha
Procedure, shortened: as §1

[17] = system: Field Corn; assay: Postemergence Herbicidal Activity, Field Corn; conditions: Zea mays, post-emergence; for plant injury at 2000 g/ha: 2.0 kg/ha
Procedure, shortened: as §1

[18] = system: Soybean; assay: Preemergence Herbicidal Activity, Soybean; conditions: Glycine max, pre-emergence; for plant injury at 2000 g/ha: 2.0 kg/ha
Procedure, shortened: as §1

[19] = system: Velvetleaf; assay: Postemergence Herbicidal Activity, Velvetleaf; conditions: Abutilon theophrasti, post-emergence; for pest or weed control at 2000 g/ha: 2.0 kg/ha
Procedure, shortened: as §3

[20] = system: Morningglory; assay: Preemergence Herbicidal Activity, Morningglory; conditions: Ipomoea, pre-emergence; for pest or weed control at 2000 g/ha: 2.0 kg/ha
Procedure, shortened: as §3

[21] = system: Morningglory; assay: Postemergence Herbicidal Activity, Morningglory; conditions: Ipomoea, post-emergence; for pest or weed control at 2000 g/ha: 2.0 kg/ha
Procedure, shortened: as §3

[22] = system: Rice; assay: Postemergence Herbicidal Activity, Rice; conditions: Oryza sativa, post-emergence; for plant injury at 2000 g/ha: 2.0 kg/ha
Procedure, shortened: as §1

O=c1n(CCCF)nnn1-c1cc(NS(=O)(=O)C(F)(F)F)c(Cl)cc1F [Compound 32, 1-[4-Chloro-2-fluoro-5-(N--trifluoromethylsulfonylamino)phenyl]-1,4-dihydro-4-(3-fluoropropyl)-5H--tetrazol-5-one potassium salt]
plant injury at 2000 g/ha [1]: 50%
pest or weed control at 2000 g/ha [2]: 60%
pest or weed control at 2000 g/ha [3]: 80%
plant injury at 2000 g/ha [4]: 100%
pest or weed control at 2000 g/ha [5]: 40%
pest or weed control at 2000 g/ha [6]: 95%
pest or weed control at 2000 g/ha [7]: 70%
plant injury at 2000 g/ha [8]: 100%
pest or weed control at 2000 g/ha [9]: 100%
pest or weed control at 2000 g/ha [10]: 70%
plant injury at 2000 g/ha [11]: 40%
pest or weed control at 2000 g/ha [12]: 100%
plant injury at 2000 g/ha [13]: 95%
plant injury at 2000 g/ha [14]: 10%
pest or weed control at 2000 g/ha [15]: 100%
plant injury at 2000 g/ha [16]: 100%
plant injury at 2000 g/ha [17]: 70%
plant injury at 2000 g/ha [18]: 40%
pest or weed control at 2000 g/ha [19]: 100%
pest or weed control at 2000 g/ha [20]: 100%
pest or weed control at 2000 g/ha [21]: 100%
plant injury at 2000 g/ha [22]: 40%

CS(=O)(=O)Nc1cc(-n2nnn(CCCF)c2=O)c(F)cc1Br [Compound 33, 1-[4-Bromo-2-fluoro-5-(N--methylsulfonylamino)phenyl]-1,4-dihydro-(3-fluoropropyl)-5H--tetrazol-5-one]
plant injury at 250 g/ha ([1]; 0.25 kg/ha): 40%
pest or weed control at 250 g/ha ([2]; 0.25 kg/ha): 70%
pest or weed control at 250 g/ha ([3]; 0.25 kg/ha): 70%
plant injury at 250 g/ha ([4]; 0.25 kg/ha): 100%
pest or weed control at 250 g/ha ([5]; 0.25 kg/ha): 100%
pest or weed control at 250 g/ha ([6]; 0.25 kg/ha): 95%
pest or weed control at 250 g/ha ([7]; 0.25 kg/ha): 80%
plant injury at 250 g/ha ([8]; 0.25 kg/ha): 100%
pest or weed control at 250 g/ha ([9]; 0.25 kg/ha): 100%
pest or weed control at 250 g/ha ([10]; 0.25 kg/ha): 70%
plant injury at 250 g/ha ([11]; 0.25 kg/ha): 40%
pest or weed control at 250 g/ha ([12]; 0.25 kg/ha): 100%
plant injury at 250 g/ha ([13]; 0.25 kg/ha): 80%
plant injury at 250 g/ha ([14]; 0.25 kg/ha): 20%
pest or weed control at 250 g/ha ([15]; 0.25 kg/ha): 100%
plant injury at 250 g/ha ([16]; 0.25 kg/ha): 70%
plant injury at 250 g/ha ([17]; 0.25 kg/ha): 30%
plant injury at 250 g/ha ([18]; 0.25 kg/ha): 10%
pest or weed control at 250 g/ha ([19]; 0.25 kg/ha): 100%
pest or weed control at 250 g/ha ([20]; 0.25 kg/ha): 100%
pest or weed control at 250 g/ha ([21]; 0.25 kg/ha): 100%
plant injury at 250 g/ha ([22]; 0.25 kg/ha): 80%

O=c1n(CCCF)nnn1-c1cc(NS(=O)(=O)C(F)(F)F)c(Cl)cc1Cl [Compound 35, 1-[2,4-Dichloro-5-(N--trifluoromethylsulfonylamino)phenyl]-4,5-dihydro-4-(3-fluoropropyl)-5H--tetrazol-5-one]
plant injury at 4000 g/ha ([1]; 4.0 kg/ha): 50%
pest or weed control at 4000 g/ha ([2]; 4.0 kg/ha): 100%
pest or weed control at 4000 g/ha ([3]; 4.0 kg/ha): 95%
plant injury at 4000 g/ha ([4]; 4.0 kg/ha): 100%
pest or weed control at 4000 g/ha ([5]; 4.0 kg/ha): 100%
pest or weed control at 4000 g/ha ([6]; 4.0 kg/ha): 90%
pest or weed control at 4000 g/ha ([7]; 4.0 kg/ha): 70%
plant injury at 4000 g/ha ([8]; 4.0 kg/ha): 100%
pest or weed control at 4000 g/ha ([9]; 4.0 kg/ha): 100%
pest or weed control at 4000 g/ha ([10]; 4.0 kg/ha): 90%
plant injury at 4000 g/ha ([11]; 4.0 kg/ha): 40%
pest or weed control at 4000 g/ha ([12]; 4.0 kg/ha): 100%
plant injury at 4000 g/ha ([13]; 4.0 kg/ha): 95%
plant injury at 4000 g/ha ([14]; 4.0 kg/ha): 70%
pest or weed control at 4000 g/ha ([15]; 4.0 kg/ha): 95%
plant injury at 4000 g/ha ([16]; 4.0 kg/ha): 100%
plant injury at 4000 g/ha ([17]; 4.0 kg/ha): 70%
plant injury at 4000 g/ha ([18]; 4.0 kg/ha): 80%
pest or weed control at 4000 g/ha ([19]; 4.0 kg/ha): 100%
pest or weed control at 4000 g/ha ([20]; 4.0 kg/ha): 100%
pest or weed control at 4000 g/ha ([21]; 4.0 kg/ha): 100%
plant injury at 4000 g/ha ([22]; 4.0 kg/ha): 80%

CS(=O)(=O)N(c1cc(-n2nnn(CCCF)c2=O)c(Cl)cc1F)S(C)(=O)=O [Compound 36, 1-[2-Chloro-4-fluoro-5-[bis-(N--methylsulfonyl)amino]phenyl]-4,5-dihydro-4-(3-fluoropropyl)-5H--tetrazol-5-one]
plant injury at 2000 g/ha [1]: 70%
pest or weed control at 2000 g/ha [2]: 50%
pest or weed control at 2000 g/ha [3]: 40%
plant injury at 2000 g/ha [4]: 70%
pest or weed control at 2000 g/ha [5]: 50%
pest or weed control at 2000 g/ha [6]: 70%
pest or weed control at 2000 g/ha [7]: 50%
plant injury at 2000 g/ha [8]: 70%
pest or weed control at 2000 g/ha [9]: 95%
pest or weed control at 2000 g/ha [10]: 50%
plant injury at 2000 g/ha [11]: 10%
pest or weed control at 2000 g/ha [12]: 100%
plant injury at 2000 g/ha [13]: 0%
plant injury at 2000 g/ha [14]: 0%
pest or weed control at 2000 g/ha [15]: 60%
plant injury at 2000 g/ha [16]: 10%
plant injury at 2000 g/ha [17]: 10%
plant injury at 2000 g/ha [18]: 0%
pest or weed control at 2000 g/ha [19]: 90%
pest or weed control at 2000 g/ha [20]: 90%
pest or weed control at 2000 g/ha [21]: 80%
plant injury at 2000 g/ha [22]: 10%

CCS(=O)(=O)N(c1cc(-n2nnn(CCCF)c2=O)c(Cl)cc1F)S(=O)(=O)CC [Compound 37, 1-[2-Chloro-4-fluoro-5-[bis(N--ethylsulfonyl)amino]phenyl]-4,5-dihydro-4-(3-fluoropropyl)-5H--tetrazol-5-one]
plant injury at 2000 g/ha [1]: 20%
pest or weed control at 2000 g/ha [2]: 50%
pest or weed control at 2000 g/ha [3]: 70%
plant injury at 2000 g/ha [4]: 70%
pest or weed control at 2000 g/ha [5]: 50%
pest or weed control at 2000 g/ha [6]: 80%
pest or weed control at 2000 g/ha [7]: 30%
plant injury at 2000 g/ha [8]: 10%
pest or weed control at 2000 g/ha [9]: 100%
pest or weed control at 2000 g/ha [10]: 20%
plant injury at 2000 g/ha [11]: 20%
pest or weed control at 2000 g/ha [12]: 20%
plant injury at 2000 g/ha [13]: 0%
plant injury at 2000 g/ha [14]: 30%
pest or weed control at 2000 g/ha [15]: 40%
plant injury at 2000 g/ha [16]: 40%
plant injury at 2000 g/ha [17]: 20%
plant injury at 2000 g/ha [18]: 0%
pest or weed control at 2000 g/ha [19]: 80%
pest or weed control at 2000 g/ha [20]: 20%
pest or weed control at 2000 g/ha [21]: 50%
plant injury at 2000 g/ha [22]: 20%
